Earlier results as cited in patent publication US20180110888A1, “COMBINATIONS FOR THE TREATMENT OF CANCER” (BAYER PHARMA AKTIENGESELLSCHAFT, priority 2012, published 2018).

Assays:
[1] = system: CRPC (Castration Resistant Prostate Cancer) and bone metastases
[2] = single dose 250 kBq per kg body weight
[3] = phase 2 studies, patients with CRPC and bone metastases

Row | excreted by feces (in vivo) | excreted by urine (in vivo) | terminal half life (in vivo) | effect of administration with food (oral administration with food) | Structure (SMILES) | safety profile (bone metastases; phase 1 and 2 studies, patients with bone metastases) | effect on disease-related biomarkers (bone ALP, PSA) (bone metastases; [3]) | effect on pain (bone metastases; [3]) | reduction in risk of death compared with placebo ([1]; overall survival, patients with CRPC and bone metastases) | median survival longer than placebo by ([1]; patients with CRPC and bone metastases) | time to first skeletal-related event ([1]; versus placebo) | cases of grade 3 neutropenia [2] | observed adverse reactions [2]
1 | ~88% | ~5% | 12 ± 5 h | increases absorption | C[C@]12CC[C@H](O)CC1=CC[C@@H]1[C@@H]2CC[C@]2(C)C(c3cccnc3)=CC[C@@H]12 [abiraterone] |  |  |  |  |  |  |  | 
2 |  |  |  |  | [Cl][223Ra][Cl] [radium-223, Radium-223 dichloride] | minimal myelotoxicity | improves disease-related biomarkers | reduces pain | 30.5% | 2.8 months | significantly prolonged | 1/5 | diarrhea and reversible myelosuppression
